Experimental data as given in PMC3639963, “A New Class of Small Molecule Inhibitor of BMP Signaling” (PLoS ONE, 2013).

Assays:
Assay in all cases: Nanosyn kinase profiling
Assay type in all cases: biochemical
Details in all cases: read-out: Percentage inhibition; for inhibition at 0.1 µM: 0.1 µM inhibitor; for inhibition at 1 µM: 1 µM inhibitor
FES = molecular target: T1, FES (Homo sapiens, UniProt P07332)
T1 construct: purchased Nanosyn (enzymatic panel); SGC in-house recombinant human kinases (DSF panel); Invitrogen (ALK1-6)
How it was run: (§1)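 Percent inhibition of each kinase was measured with the inhibitor at 0.1 µM and at 1 µM, as part of a 200-kinase human selectivity panel.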

MSK2 = molecular target: T2, MSK2 (Homo sapiens, UniProt O75676)
T2 construct: purchased Nanosyn (enzymatic panel); SGC in-house recombinant human kinases (DSF panel); Invitrogen (ALK1-6)
How it was run: as §1

PDK1 = molecular target: T3, PDK1 (Homo sapiens, UniProt O15530)
T3 construct: purchased Nanosyn (enzymatic panel); SGC in-house recombinant human kinases (DSF panel); Invitrogen (ALK1-6)
T3 sequence (O15530 1-556): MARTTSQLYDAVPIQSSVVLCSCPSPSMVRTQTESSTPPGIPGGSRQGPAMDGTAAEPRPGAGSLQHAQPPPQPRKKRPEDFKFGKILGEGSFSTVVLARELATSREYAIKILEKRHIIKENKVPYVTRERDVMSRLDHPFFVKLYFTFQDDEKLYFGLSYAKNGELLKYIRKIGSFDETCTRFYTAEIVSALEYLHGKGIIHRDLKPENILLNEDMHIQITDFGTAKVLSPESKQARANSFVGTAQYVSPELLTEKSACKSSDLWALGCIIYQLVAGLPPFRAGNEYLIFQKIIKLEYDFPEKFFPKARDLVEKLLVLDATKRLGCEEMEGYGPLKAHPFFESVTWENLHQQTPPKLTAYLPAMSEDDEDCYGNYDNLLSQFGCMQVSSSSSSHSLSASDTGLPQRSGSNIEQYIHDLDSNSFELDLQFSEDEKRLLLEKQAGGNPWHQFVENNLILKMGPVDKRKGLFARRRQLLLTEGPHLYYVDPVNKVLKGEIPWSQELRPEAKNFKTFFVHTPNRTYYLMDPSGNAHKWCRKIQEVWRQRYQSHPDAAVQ
How it was run: as §1

NEK6 = molecular target: T4, NEK6 (Homo sapiens, UniProt Q9HC98)
T4 construct: purchased Nanosyn (enzymatic panel); SGC in-house recombinant human kinases (DSF panel); Invitrogen (ALK1-6)
How it was run: as §1

MAPK3 = molecular target: T5, MAPK3 (Homo sapiens, UniProt P27361)
T5 construct: purchased Nanosyn (enzymatic panel); SGC in-house recombinant human kinases (DSF panel); Invitrogen (ALK1-6)
How it was run: as §1

FGFR1 = molecular target: T6, FGFR1 (Homo sapiens, UniProt P11362)
T6 construct: purchased Nanosyn (enzymatic panel); SGC in-house recombinant human kinases (DSF panel); Invitrogen (ALK1-6)
How it was run: as §1

JNK2 = molecular target: T7, JNK2 (Homo sapiens, UniProt P45984)
T7 construct: purchased Nanosyn (enzymatic panel); SGC in-house recombinant human kinases (DSF panel); Invitrogen (ALK1-6)
How it was run: as §1

YES = molecular target: T8, YES (Homo sapiens, UniProt P07947)
T8 construct: purchased Nanosyn (enzymatic panel); SGC in-house recombinant human kinases (DSF panel); Invitrogen (ALK1-6)
How it was run: as §1

CDK1/cycB = molecular target: T9, CDK1/cycB (Homo sapiens, UniProt P06493)
T9 construct: purchased Nanosyn (enzymatic panel); SGC in-house recombinant human kinases (DSF panel); Invitrogen (ALK1-6)
How it was run: as §1

MNK2 = molecular target: T10, MNK2 (Homo sapiens, UniProt Q9HBH9)
T10 construct: purchased Nanosyn (enzymatic panel); SGC in-house recombinant human kinases (DSF panel); Invitrogen (ALK1-6)
How it was run: as §1

ROCK2 = molecular target: T11, ROCK2 (Homo sapiens, UniProt O75116)
T11 construct: purchased Nanosyn (enzymatic panel); SGC in-house recombinant human kinases (DSF panel); Invitrogen (ALK1-6)
How it was run: as §1

PKCθ = molecular target: T12, PKCθ (Homo sapiens, UniProt Q04759)
T12 construct: purchased Nanosyn (enzymatic panel); SGC in-house recombinant human kinases (DSF panel); Invitrogen (ALK1-6)
How it was run: as §1

TEC = molecular target: T13, TEC (Homo sapiens, UniProt P42680)
T13 construct: purchased Nanosyn (enzymatic panel); SGC in-house recombinant human kinases (DSF panel); Invitrogen (ALK1-6)
T13 sequence (P42680 1-631): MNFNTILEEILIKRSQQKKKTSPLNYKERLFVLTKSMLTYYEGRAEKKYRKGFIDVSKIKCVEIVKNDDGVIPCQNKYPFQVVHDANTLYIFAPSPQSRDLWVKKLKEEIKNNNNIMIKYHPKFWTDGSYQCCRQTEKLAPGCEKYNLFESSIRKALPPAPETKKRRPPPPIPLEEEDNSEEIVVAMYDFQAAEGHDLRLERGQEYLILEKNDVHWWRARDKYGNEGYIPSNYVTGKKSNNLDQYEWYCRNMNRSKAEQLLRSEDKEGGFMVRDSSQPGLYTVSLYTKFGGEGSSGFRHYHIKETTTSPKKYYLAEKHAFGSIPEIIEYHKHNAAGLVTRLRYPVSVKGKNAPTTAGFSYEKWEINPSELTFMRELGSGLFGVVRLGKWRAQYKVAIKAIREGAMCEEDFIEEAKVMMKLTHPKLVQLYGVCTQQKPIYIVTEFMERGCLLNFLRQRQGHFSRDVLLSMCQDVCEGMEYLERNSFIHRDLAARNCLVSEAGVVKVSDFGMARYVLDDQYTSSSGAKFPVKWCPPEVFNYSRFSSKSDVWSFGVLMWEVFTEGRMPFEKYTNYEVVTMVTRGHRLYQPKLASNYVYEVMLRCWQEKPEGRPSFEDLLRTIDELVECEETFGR
How it was run: as §1

TNK1 = molecular target: T14, TNK1 (Homo sapiens, UniProt Q13470)
T14 construct: purchased Nanosyn (enzymatic panel); SGC in-house recombinant human kinases (DSF panel); Invitrogen (ALK1-6)
T14 sequence (Q13470 1-666): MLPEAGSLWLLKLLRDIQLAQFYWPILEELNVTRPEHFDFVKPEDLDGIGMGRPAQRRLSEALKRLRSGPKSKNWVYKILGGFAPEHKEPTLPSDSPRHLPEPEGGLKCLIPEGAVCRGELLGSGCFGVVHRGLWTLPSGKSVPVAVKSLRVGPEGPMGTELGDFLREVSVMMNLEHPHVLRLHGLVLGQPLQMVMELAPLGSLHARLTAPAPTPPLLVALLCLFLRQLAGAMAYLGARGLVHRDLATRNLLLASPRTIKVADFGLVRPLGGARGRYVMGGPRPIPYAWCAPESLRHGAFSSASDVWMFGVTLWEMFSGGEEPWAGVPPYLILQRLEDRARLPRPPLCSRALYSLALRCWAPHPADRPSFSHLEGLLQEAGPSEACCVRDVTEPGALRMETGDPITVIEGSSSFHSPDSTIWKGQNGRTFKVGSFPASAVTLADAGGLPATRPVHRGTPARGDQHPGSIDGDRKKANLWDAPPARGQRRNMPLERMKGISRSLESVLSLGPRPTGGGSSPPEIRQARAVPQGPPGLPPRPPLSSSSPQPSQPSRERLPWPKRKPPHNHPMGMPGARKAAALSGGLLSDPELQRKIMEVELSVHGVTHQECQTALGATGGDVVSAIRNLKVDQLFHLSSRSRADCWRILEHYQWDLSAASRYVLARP
How it was run: as §1

T10 sequence (Q9HBH9 whole entry): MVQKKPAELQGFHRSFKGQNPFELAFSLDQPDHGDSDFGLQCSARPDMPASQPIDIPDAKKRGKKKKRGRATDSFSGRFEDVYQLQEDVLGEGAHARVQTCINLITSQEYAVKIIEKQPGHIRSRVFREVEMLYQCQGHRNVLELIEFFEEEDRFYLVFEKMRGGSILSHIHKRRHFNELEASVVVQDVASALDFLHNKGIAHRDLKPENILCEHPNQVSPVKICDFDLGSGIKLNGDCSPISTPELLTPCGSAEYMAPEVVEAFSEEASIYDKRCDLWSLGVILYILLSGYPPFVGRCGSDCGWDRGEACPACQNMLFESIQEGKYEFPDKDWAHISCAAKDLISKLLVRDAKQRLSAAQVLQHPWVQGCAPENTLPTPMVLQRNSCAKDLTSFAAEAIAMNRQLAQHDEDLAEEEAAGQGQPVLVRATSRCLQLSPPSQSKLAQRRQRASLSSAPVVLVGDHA
T2 sequence (O75676 whole entry): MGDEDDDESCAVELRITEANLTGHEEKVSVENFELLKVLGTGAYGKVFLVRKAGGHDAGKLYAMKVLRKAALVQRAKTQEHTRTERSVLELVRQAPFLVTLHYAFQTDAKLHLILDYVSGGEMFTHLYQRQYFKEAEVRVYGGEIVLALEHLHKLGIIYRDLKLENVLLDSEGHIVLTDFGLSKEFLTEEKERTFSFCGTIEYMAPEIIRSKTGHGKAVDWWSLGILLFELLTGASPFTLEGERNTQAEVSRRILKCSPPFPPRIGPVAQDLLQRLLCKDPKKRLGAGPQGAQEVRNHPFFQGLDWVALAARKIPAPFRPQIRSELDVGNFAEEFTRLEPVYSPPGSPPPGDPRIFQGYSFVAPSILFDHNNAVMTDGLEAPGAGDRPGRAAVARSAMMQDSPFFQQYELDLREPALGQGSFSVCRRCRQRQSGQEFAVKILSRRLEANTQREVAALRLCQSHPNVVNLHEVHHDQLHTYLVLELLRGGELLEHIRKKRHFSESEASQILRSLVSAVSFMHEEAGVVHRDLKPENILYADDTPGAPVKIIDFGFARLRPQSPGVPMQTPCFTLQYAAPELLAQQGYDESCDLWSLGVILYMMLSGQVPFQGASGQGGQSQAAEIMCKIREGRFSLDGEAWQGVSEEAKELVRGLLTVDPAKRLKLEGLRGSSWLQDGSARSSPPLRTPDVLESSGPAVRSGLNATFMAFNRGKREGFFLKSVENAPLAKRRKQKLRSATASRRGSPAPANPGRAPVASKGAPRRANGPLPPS
T5 sequence (P27361 whole entry): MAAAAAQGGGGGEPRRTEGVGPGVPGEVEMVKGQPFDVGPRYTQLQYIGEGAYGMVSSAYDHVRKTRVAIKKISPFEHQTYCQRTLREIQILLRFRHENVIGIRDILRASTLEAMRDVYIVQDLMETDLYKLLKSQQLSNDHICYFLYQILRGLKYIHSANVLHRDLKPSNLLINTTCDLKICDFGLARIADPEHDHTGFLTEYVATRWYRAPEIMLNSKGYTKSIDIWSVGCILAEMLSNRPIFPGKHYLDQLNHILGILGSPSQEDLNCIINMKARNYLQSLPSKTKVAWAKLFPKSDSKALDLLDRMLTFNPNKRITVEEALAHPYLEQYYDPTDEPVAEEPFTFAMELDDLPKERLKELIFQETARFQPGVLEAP
T7 sequence (P45984 whole entry): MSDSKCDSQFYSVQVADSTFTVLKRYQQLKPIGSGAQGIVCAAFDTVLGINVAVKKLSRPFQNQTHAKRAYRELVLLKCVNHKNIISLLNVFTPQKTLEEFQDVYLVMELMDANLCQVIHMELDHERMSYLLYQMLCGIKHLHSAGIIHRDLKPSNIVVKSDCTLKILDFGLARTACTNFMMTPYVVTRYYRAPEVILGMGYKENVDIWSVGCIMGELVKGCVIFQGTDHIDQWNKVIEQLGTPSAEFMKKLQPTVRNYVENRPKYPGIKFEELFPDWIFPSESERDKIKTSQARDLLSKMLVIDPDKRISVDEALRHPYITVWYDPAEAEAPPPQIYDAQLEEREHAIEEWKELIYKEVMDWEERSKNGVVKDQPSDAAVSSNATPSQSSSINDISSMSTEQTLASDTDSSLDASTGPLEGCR
T1 sequence (P07332 whole entry): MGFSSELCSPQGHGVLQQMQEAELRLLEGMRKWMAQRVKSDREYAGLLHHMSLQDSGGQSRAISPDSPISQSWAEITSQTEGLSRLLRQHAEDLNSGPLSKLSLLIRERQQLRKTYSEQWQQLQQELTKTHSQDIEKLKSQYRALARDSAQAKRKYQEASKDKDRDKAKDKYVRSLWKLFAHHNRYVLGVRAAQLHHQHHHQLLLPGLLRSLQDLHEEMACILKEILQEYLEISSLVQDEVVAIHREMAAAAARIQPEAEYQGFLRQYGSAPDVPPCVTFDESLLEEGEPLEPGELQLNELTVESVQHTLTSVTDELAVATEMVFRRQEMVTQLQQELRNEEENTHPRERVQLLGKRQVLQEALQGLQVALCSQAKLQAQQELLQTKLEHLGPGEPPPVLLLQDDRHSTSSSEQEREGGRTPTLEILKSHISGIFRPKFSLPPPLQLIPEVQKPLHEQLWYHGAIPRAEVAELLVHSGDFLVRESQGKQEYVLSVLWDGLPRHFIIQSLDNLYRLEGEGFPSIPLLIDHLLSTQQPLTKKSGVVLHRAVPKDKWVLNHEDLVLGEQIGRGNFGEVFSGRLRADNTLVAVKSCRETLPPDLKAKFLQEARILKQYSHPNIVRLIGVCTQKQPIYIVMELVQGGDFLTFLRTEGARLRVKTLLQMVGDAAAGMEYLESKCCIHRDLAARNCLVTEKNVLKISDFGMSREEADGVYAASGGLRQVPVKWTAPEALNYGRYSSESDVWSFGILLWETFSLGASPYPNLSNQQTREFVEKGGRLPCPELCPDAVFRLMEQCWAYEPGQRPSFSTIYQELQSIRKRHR
T11 sequence (O75116 whole entry): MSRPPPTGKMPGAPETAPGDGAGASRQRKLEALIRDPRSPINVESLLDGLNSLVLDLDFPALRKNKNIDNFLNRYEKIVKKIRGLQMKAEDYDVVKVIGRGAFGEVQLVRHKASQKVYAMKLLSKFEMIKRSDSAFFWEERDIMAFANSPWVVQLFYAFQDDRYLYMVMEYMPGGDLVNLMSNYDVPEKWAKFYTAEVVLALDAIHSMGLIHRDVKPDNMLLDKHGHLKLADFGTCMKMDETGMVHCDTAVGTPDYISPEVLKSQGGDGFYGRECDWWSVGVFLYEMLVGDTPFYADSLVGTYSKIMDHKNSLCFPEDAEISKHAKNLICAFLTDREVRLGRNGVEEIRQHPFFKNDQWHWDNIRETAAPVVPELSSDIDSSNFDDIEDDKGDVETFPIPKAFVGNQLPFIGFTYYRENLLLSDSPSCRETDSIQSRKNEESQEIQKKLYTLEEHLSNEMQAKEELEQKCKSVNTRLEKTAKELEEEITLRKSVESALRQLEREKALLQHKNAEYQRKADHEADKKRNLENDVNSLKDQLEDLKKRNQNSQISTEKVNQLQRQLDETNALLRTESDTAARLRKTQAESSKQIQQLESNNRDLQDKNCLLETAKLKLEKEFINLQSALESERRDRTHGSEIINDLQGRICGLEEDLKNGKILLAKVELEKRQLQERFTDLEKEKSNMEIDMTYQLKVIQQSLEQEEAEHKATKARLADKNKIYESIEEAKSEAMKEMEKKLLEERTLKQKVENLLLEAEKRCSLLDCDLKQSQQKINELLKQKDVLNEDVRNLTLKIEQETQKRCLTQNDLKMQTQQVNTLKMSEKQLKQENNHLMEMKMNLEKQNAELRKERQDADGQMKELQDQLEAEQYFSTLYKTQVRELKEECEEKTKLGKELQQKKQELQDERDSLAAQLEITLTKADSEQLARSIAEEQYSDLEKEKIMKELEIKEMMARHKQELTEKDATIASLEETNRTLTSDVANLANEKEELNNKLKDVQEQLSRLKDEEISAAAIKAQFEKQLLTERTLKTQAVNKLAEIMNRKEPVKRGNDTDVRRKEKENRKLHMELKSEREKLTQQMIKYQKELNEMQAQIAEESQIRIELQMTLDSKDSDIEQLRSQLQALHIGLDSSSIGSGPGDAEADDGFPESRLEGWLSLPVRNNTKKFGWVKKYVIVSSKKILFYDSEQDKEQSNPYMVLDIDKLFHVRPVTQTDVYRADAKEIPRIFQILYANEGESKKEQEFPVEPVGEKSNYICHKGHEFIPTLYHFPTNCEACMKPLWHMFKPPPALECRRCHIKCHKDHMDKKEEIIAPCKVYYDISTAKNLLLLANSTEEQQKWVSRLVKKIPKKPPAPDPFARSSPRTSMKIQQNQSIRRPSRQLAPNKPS
T12 sequence (Q04759 whole entry): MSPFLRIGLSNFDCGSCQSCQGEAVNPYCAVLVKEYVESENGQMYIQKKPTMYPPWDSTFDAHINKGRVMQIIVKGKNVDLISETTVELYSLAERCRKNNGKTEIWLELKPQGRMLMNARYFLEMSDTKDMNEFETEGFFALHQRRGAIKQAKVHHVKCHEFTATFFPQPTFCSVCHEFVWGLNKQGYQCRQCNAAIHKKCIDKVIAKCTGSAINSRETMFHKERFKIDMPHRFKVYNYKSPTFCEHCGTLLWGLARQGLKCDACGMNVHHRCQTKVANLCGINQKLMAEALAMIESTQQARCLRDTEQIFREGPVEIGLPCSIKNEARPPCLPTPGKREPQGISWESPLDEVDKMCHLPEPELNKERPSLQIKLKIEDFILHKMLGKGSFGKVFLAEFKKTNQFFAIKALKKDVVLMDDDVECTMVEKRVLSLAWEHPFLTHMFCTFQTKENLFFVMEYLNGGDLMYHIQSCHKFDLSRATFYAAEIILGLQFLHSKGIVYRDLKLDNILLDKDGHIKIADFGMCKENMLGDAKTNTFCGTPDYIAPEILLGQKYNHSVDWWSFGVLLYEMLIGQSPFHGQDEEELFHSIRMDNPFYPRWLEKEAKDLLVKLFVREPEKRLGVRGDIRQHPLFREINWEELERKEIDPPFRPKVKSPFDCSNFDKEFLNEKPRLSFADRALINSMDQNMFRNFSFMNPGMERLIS

Structure (SMILES) | inhibition at 0.1 µM (FES) [%] | inhibition at 1 µM (FES) [%] | inhibition at 0.1 µM (MSK2) [%] | inhibition at 1 µM (MSK2) [%] | inhibition at 0.1 µM (PDK1) [%] | inhibition at 1 µM (PDK1) [%] | inhibition at 0.1 µM (NEK6) [%] | inhibition at 1 µM (NEK6) [%] | inhibition at 0.1 µM (MAPK3) [%] | inhibition at 1 µM (MAPK3) [%] | inhibition at 0.1 µM (FGFR1) [%] | inhibition at 1 µM (FGFR1) [%] | inhibition at 0.1 µM (JNK2) [%] | inhibition at 1 µM (JNK2) [%] | inhibition at 0.1 µM (YES) [%] | inhibition at 1 µM (YES) [%] | inhibition at 0.1 µM (CDK1/cycB) [%] | inhibition at 1 µM (CDK1/cycB) [%] | inhibition at 0.1 µM (MNK2) [%] | inhibition at 1 µM (MNK2) [%] | also measured
c1ccc2c(-c3cnn4cc(-c5ccc(N6CCNCC6)cc5)cnc34)ccnc2c1 [LDN-193189] | 2.2 | 2.4 | 0.9 | 0.8 | 1.1 | 1.9 | 2.3 | -1 | 1.9 | -2 | 3.4 | 19 | 3.9 | 1.3 | 12 | 50 | 0.5 | 5 | 3.7 | 31 | inhibition at 0.1 µM (ROCK2): 1.4%; inhibition at 1 µM (ROCK2): 1.5%; inhibition at 0.1 µM (PKCθ): 1.4%; inhibition at 1 µM (PKCθ): 1.3%; inhibition at 0.1 µM (TEC): 1.8%; inhibition at 1 µM (TEC): 5.5%; inhibition at 0.1 µM (TNK1): 18%; inhibition at 1 µM (TNK1): 63%
COc1cc(-c2cc(-c3cccc(O)c3)cnc2N)cc(OC)c1OC [K02288, 3-[6-amino-5-(3,4,5-trimethoxy-phenyl)-pyridin-3-yl]-phenol] | -1 | -1 | -1 | 1 | 0 | 0.5 | -2 | -1 | 0 | -1 | -1 | -3 | 0.9 | 0 | 4.9 | 34 | 1 | 1.5 | 1.9 | 3.2 | inhibition at 0.1 µM (ROCK2): -1%; inhibition at 1 µM (ROCK2): 0.8%; inhibition at 0.1 µM (PKCθ): 0%; inhibition at 1 µM (PKCθ): 0.1%; inhibition at 0.1 µM (TEC): 0.3%; inhibition at 1 µM (TEC): 14%; inhibition at 0.1 µM (TNK1): 0.4%; inhibition at 1 µM (TNK1): 10%
